# Assay results: patent publication US8889704B2 (Array BioPharma Inc., priority 2011, dated 2014)
# Counter-ions that a name gives are not always drawn.
# Experiments:
# Assay type in all cases: biochemical
# [1] = molecular target: T1, GST-tagged recombinant full-length human Pim-2 (Homo sapiens, UniProt Q9P1W9); test: PIM-2 Assay (as Example A); conditions: averaged IC50; 4 μM ATP, 1.0 μM PIM2tide, 1.5 nM Pim-2
# T1 construct: GST-tagged recombinant full-length human Pim-2; GST
# Procedure: (§1) The assay for the determination of PIM-1 activity is based on the incorporation of [^33P]PO4 from [γ-^33P]ATP into PIM2tide substrate and capture of the radiolabeled peptide onto a Whatman P81 (phosphocellulose) filter plate. The amount of radiolabeled product is then measured by liquid scintillation counting. The final buffer conditions were as follows: 20 mM K^+MOPS, pH 7.4, 10 mM MgCl2, 0.005% Tween-20, 1 mM DTT. Assay mixtures contained 35 μM [γ-^33P]ATP (20 μCi/mL), 7.5 μM PIM2tide and 0.25 nM PIM-1 in a total volume of 50 μL. Incubations were carried out for 60 min at 22° C. and quenched with 75 μL of 200 mM H3PO4, filtered through a Whatman P81 plate and washed (1×200 μL and 5×100 μL) with 200 mM H3PO4. Fifty μL of liquid scintillation cocktail were then added per well, and the plate was counted for 30 s/well using a TopCount NXT.
# (§2) Compounds were prepared at 50× the final concentration in DMSO by conducting 3-fold serial dilutions from a 500-μM intermediate dilution to give a 10-point dosing curve having a high dose of 10 μM. One-μL aliquots of these were then transferred to the assay mixtures above to give a final concentration of DMSO of 2%. A standard or reference compound was typically included on each assay plate to validate that plate. For each plate, percent of control (POC) values were calculated for each well. IC50 values were estimated from the POC values using a standard 4-parameter logistic model. The IC50 is defined as the concentration of inhibitor at which the POC equals 50 for the fitted curve.
# Assay was performed as described in Example A, using 4 μM [γ-^33P]ATP (20 μCi/mL), 1.0 μM PIM2tide and 1.5 nM GST-tagged recombinant full-length human Pim-2 in place of PIM-1.
# recombinant rat PIM-3 = recombinant rat PIM-3 (Rattus norvegicus, UniProt O70444); test: PIM-3 Assay (as Example A); conditions: averaged IC50; 30 μM ATP, 3.75 μM PIM2tide, 0.5 nM PIM-3
# Procedure: as §1, §2
# Assay was performed as described in Example A, using 30 μM [γ-^33P]ATP (20 μCi/mL), 3.75 μM PIM2tide and 0.5 nM recombinant rat PIM-3 in place of PIM-1.
# PIM-1 = PIM-1 (Homo sapiens, UniProt P11309); test: Enzyme PIM-1 Assay ([33P]ATP incorporation into PIM2tide, filter plate); conditions: averaged IC50; 35 μM ATP, 7.5 μM PIM2tide, 0.25 nM PIM-1, 60 min at 22° C.
# Sequence of PIM-1 (P11309 whole entry, species assumed): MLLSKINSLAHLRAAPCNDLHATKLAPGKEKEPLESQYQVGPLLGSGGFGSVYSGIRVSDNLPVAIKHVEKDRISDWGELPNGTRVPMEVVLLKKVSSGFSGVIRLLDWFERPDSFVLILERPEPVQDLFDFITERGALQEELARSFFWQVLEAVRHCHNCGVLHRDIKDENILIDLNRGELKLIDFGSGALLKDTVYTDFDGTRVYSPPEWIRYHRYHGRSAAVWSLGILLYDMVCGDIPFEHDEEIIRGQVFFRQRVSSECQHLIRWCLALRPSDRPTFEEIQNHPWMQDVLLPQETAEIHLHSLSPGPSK
# Procedure: as §1, §2
# T1 sequence (Q9P1W9 whole entry): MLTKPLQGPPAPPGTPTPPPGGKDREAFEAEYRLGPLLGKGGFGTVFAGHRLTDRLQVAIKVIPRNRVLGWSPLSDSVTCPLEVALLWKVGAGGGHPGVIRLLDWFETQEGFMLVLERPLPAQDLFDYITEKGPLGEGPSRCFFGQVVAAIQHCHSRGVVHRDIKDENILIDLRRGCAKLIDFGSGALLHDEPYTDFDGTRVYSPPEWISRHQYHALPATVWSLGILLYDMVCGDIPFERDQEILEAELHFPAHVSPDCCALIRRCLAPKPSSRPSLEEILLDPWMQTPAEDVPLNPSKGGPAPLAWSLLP
SMILES,IC50 [1],IC50 (recombinant rat PIM-3),IC50 (PIM-1)
"COc1cccc2ccc(-c3nnc4ccc([C@@H](N5CCC(C)(O)C5)C(F)(F)F)cn34)nc12 (single isomer, unassigned; diastereomer 2) [Example 194, hydrochloride]",> 1000 nM,> 100 nM,> 100 nM
"CCC1(N)CCN([C@@H](c2ccc3nnc(-c4ccc5cccc(OC)c5n4)n3c2)C(F)(F)F)C1 (single isomer, unassigned; diastereomer 2) [Example 244, dihydrochloride]",93 nM,1 nM,1.11 nM
"CCOc1cc2nc(-c3nnc4ccc([C@@H](N5CCC(N)(CC)C5)C(F)(F)F)cn34)ccc2cc1F (single isomer, unassigned; diastereomer 2) [Example 253, dihydrochloride]",776 nM,2.2 nM,0.78 nM
"COCCOc1ccc2cc(F)c(-c3nnc4ccc(C(N5CC[C@](C)(N)C5)C(F)(F)F)cn34)nc2c1 (stereo in doubt) [Example 327, (S)-3-methyl-1-((R)-2,2,2-trifluoro-1-(3-(3-fluoro-7-(2-methoxyethoxy)quinolin-2-yl)-[1,2,4]triazolo[4,3-a]pyridin-6-yl)ethyl)pyrrolidin-3-amine]",340 nM,1.34 nM,0.42 nM
"N[C@H]1CCN(C(c2ccc3nnc(-c4ccc5ccc(Br)cc5n4)n3c2)C(F)(F)F)C1 (stereo partly drawn) [Example 2, (3S)-1-(1-(3-(7-bromoquinolin-2-yl)-[1,2,4]triazolo[4,3-a]pyridin-6-yl)-2,2,2-trifluoroethyl)pyrrolidin-3-amine dihydrochloride]",74 nM,1 nM,0.19 nM
"N[C@H]1CCN(C(c2ccc3nnc(-c4ccc5ccc(C6CC6)cc5n4)n3c2)C(F)(F)F)C1 (stereo partly drawn) [Example 3, (3S)-1-(1-(3-(7-cyclopropylquinolin-2-yl)-[1,2,4]triazolo[4,3-a]pyridin-6-yl)-2,2,2-trifluoroethyl)pyrrolidin-3-amine dihydrochloride]",53 nM,0.3 nM,0.13 nM
"N[C@H]1CCN(C(c2ccc3nnc(-c4ccc5cccc(OCC6CC6)c5n4)n3c2)C(F)(F)F)C1 (stereo partly drawn) [Example 5, (3S)-1-(1-(3-(8-(cyclopropylmethoxy)quinolin-2-yl)-[1,2,4]triazolo[4,3-a]pyridin-6-yl)-2,2,2-trifluoroethyl)pyrrolidin-3-amine dihydrochloride]",131 nM,2.6 nM,0.25 nM
"COc1cccc2ccc(-c3nnc4ccc(C(N5CC[C@H](O)C5)C(F)(F)F)cn34)nc12 (stereo partly drawn) [Example 7, (3S)-1-(2,2,2-trifluoro-1-(3-(8-methoxyquinolin-2-yl)-[1,2,4]triazolo[4,3-a]pyridin-6-yl)ethyl)pyrrolidin-3-ol]",> 1000 nM,45 nM,3.94 nM
"COc1cccc2ccc(-c3nnc4ccc([C@@H](N5CC[C@H](N)C5)C(F)(F)F)cn34)nc12 [Example 9, (S)-1-((R)-2,2,2-trifluoro-1-(3-(8-methoxyquinolin-2-yl)-[1,2,4]triazolo[4,3-a]pyridin-6-yl)ethyl)pyrrolidin-3-amine dihydrochloride]",403 nM,4.2 nM,0.68 nM
"CC(c1ccc2nnc(-c3ccc4cccc(C(C)(C)C)c4n3)n2c1)N1CC[C@H](N)C1 (stereo partly drawn) [Example 17, (3S)-1-(1-(3-(8-tert-butylquinolin-2-yl)-[1,2,4]triazolo[4,3-a]pyridin-6-yl)ethyl)pyrrolidin-3-amine trihydrochloride]",12.4 nM,1.2 nM,0.06 nM

# Results, then the compound that gave them:
IC50 [1],IC50 (recombinant rat PIM-3),IC50 (PIM-1),SMILES
112 nM,0.3 nM,0.11 nM,"N[C@H]1CCN([C@H](c2ccc3nnc(-c4ccc5ccc(O[C@H]6CCC[C@@H]6O)cc5n4)n3c2)C(F)(F)F)C1 (single isomer, unassigned; diastereomer 1) [Example 319, di-hydrochloride]"
> 1000 nM,> 100 nM,42.3 nM,"CC1(O)CCN([C@H](c2ccc3nnc(-c4ccc5cccc(C(C)(C)C)c5n4)n3c2)C(F)(F)F)C1 (single isomer, unassigned; diastereomer 2) [Example 196, hydrochloride]"
> 1000 nM,42 nM,43.5 nM,"Cn1cc(-c2ccc3ccc(-c4nnc5ccc([C@H](N6CCC(C)(O)C6)C(F)(F)F)cn45)nc3c2)cn1 (single isomer, unassigned; diastereomer 2) [Example 201, hydrochloride]"
> 1000 nM,37 nM,19.8 nM,"CC(C)Oc1cc(F)cc2ccc(-c3nnc4ccc([C@H](N5CCC(C)(O)C5)C(F)(F)F)cn34)nc12 (single isomer, unassigned; diastereomer 2) [Example 203, hydrochloride]"
> 1000 nM,40 nM,58 nM,"CC(C)Oc1cccc2ccc(-c3nnc4ccc([C@H](N5CCC(C)(O)C5)C(F)(F)F)cn34)nc12 (single isomer, unassigned; diastereomer 2) [Example 207]"
125 nM,0.5 nM,1.04 nM,"CCOc1cc2nc(-c3nnc4ccc([C@H](N5CCC(N)(CC)C5)C(F)(F)F)cn34)ccc2cc1F (single isomer, unassigned; diastereomer 2) [Example 245, dihydrochloride]"
> 1000 nM,24 nM,4.05 nM,"CCC1(N)CCN([C@H](c2ccc3nnc(-c4ccc5cccc(OC)c5n4)n3c2)C(F)(F)F)C1 (single isomer, unassigned; diastereomer 2) [Example 252, dihydrochloride]"
111 nM,0.3 nM,0.14 nM,"N[C@H]1CCN([C@H](c2ccc3nnc(-c4ccc5ccc(O[C@@H]6CCC[C@H]6O)cc5n4)n3c2)C(F)(F)F)C1 (single isomer, unassigned; diastereomer 2) [Example 320, di-hydrochloride]"
5700 nM,6.1 nM,1.15 nM,"N[C@H]1CCN(C(c2ccc3nnc(-c4ccc5cc(F)c(OCCOC(=O)c6ccccc6)cc5n4)n3c2)C(F)(F)F)C1 (stereo in doubt) [Example 313, 2-((2-(6-((R)-1-((S)-3-aminopyrrolidin-1-yl)-2,2,2-trifluoroethyl)-[1,2,4]triazolo[4,3-a]pyridin-3-yl)-6-fluoroquinolin-7-yl)oxy)ethyl benzoate]"
161 nM,1.7 nM,0.43 nM,"COc1cccc2ccc(-c3nnc4ccc(C(N5CC[C@H](N)C5)C(F)(F)F)cn34)nc12 (stereo partly drawn) [Example 1, (3S)-1-(2,2,2-trifluoro-1-(3-(8-methoxyquinolin-2-yl)-[1,2,4]triazolo[4,3-a]pyridin-6-yl)ethyl)pyrrolidin-3-amine dihydrochloride]"
451 nM,12 nM,0.84 nM,"Cn1cc(-c2ccc3ccc(-c4nnc5ccc(C(N6CC[C@H](N)C6)C(F)(F)F)cn45)nc3c2)cn1 (stereo partly drawn) [Example 4, (3S)-1-(2,2,2-trifluoro-1-(3-(7-(1-methyl-1H-pyrazol-4-yl)quinolin-2-yl)-[1,2,4]triazolo[4,3-a]pyridin-6-yl)ethyl)pyrrolidin-3-amine trihydrochloride]"
> 1000 nM,> 100 nM,11.1 nM,"COc1cccc2ccc(-c3nnc4ccc(C(N5CCCC5)C(F)(F)F)cn34)nc12 (stereo not drawn) [Example 6, 8-methoxy-2-(6-(2,2,2-trifluoro-1-(pyrrolidin-1-yl)ethyl)-[1,2,4]triazolo[4,3-a]pyridin-3-yl)quinoline]"
151 nM,2.5 nM,1.31 nM,"COc1cccc2ccc(-c3nnc4ccc([C@H](N5CC[C@H](N)C5)C(F)(F)F)cn34)nc12 [Example 8, (S)-1-((S)-2,2,2-trifluoro-1-(3-(8-methoxyquinolin-2-yl)-[1,2,4]triazolo[4,3-a]pyridin-6-yl)ethyl)pyrrolidin-3-amine dihydrochloride]"
140 nM,6 nM,0.28 nM,"N[C@@H]1CCN(C(c2ccc3nnc(-c4ccc5cccc(OCC6CC6)c5n4)n3c2)C(F)(F)F)C1 (stereo partly drawn) [Example 16, (3R)-1-(1-(3-(8-(cyclopropylmethoxy)quinolin-2-yl)-[1,2,4]triazolo[4,3-a]pyridin-6-yl)-2,2,2-trifluoroethyl)pyrrolidin-3-amine dihydrochloride]"
